In US20240238383A1, “ANTI-OXIDANT CONTAINING PARTICLES AND METHODS OF USE” (University of lowa Research Foundation, priority 2021, published 2024):
Entries after “also recorded” stand apart in the source; their conditions may differ.

Key:
[1] = system: ex vivo human donor CEC tissues; test: Mitochondrial respiration stress testing (extracellular flux analysis of O2 consumption, Seahorse) of donor CEC tissues stored in Optisol-GS; assay type: cell-based
Protocol: FIGS. 3A-3B. Ubiquinol increases mitochondrial function under oxidative stress. (A) Ex vivo human donor CECs stored in corneal storage media (Optisol-GS, Bausch+Lomb) are exposed to 3-fold greater O2 levels than in vivo CECs. Extracellular flux analysis of O2 consumption was performed in transplant-suitable ex vivo human donor CEC tissues stored for 12 days (average) in media supplemented with 10 μM free ubiquinol (dissolved in ethanol at 37° C.) for the last 5 days of storage (N=13) compared to same-donor controls (N=13). […] (B) The presence of αvβ3 on B4G12 CECs (N=3) was confirmed, indicating cRGD NPs will be a suitable delivery system for getting ubiquinol into CECs. FITC-anti-αvβ3 labeled cells were detected and counted by flow cytometry and compared to a FITC-IgG control as well as unlabeled cells. Dashed lines=injections of oligomycin (0), carbonyl cyanide-p-trifluoromethoxy-phenyl-hydrazone (F), antimycin A/rotenone (R/A). Error bars=SEM. ****P<0.0001. SRC, spare respiratory capacity.
Supplementing Optisol-GS with free ubiquinol increases mitochondrial function in donor CECs. Mitochondrial respiration stress testing (extracellular flux analysis of O2 consumption, Seahorse XFe24, Agilent) was performed in transplant-suitable ex vivo human donor CEC tissues stored for 12 days (average) in media supplemented with 10 μm free ubiquinol (dissolved in ethanol at 37 °C) for the last 5 days of storage compared to same-donor ethanol-only controls (N=13 each) (Greiner et al., 2015). […] Although free ubiquinol improved CEC mitochondrial function, ethanol and heat were required to bring it into solution and it was impractical to handle in standard industry conditions. Therefore, ubiquinol can be used to rescue mitochondrial function from storage-related oxidative stress but needs increased delivery. Given the positive impact of ubiquinol treatment on CECs stored at the end of conventional storage (12-14 days), increasing ubiquinol delivery may permit testing for benefit at extended PT (21 days, a 50% increase in PT).

cultured FECD CECs = test: RSL3/erastin-induced ferroptosis assay, cell viability by MTS, cultured FECD CECs; assay type: cell-based, human
Protocol: (§1) FIGS. 4A-4C. FECD CECs are more susceptible to ferroptosis than B4G12 control CECs. (A) Basal lipid peroxidation, as measured by C11 BODIPY, is 57% higher in cultured FECD CECs (N=3) than B4G12 cells (N=3). […] Cultured FECD CECs (N=6) also have 4.7-fold more TFR1 mRNA than B4G12 CECs (N=9), normalized to 18S. (C) Cultured FECD CECs (N=3) and B4G12 cells (N=3) were treated with 1 μM RSL3 to induce cell death via Fe-dependent ferroptosis. The cells were also treated with 100 μM of a Fe chelator, deferoxamine (DFO). Cell viability was measured using MTS assays over 8 hours.
FIGS. 5A-5B. FECD-associated ferroptosis is prevented by ubiquinol nanoparticles (NPs) and SOD2 supplementation. […] After incubating another 24 hours (68 hours total), cell viability in each culture was quantified using MTS assays.
(§2) Basal levels of lipid peroxidation and cytosolic Fe are higher in human FECD CECs than control CECs. […] One experiment assessed lipid peroxidation directly. Cultured FECD CECs and control CECs (B4G12 cells) were labeled with BODIPY and intensity was measured using flow cytometry. […] To determine whether Fe trafficking is affected in the context of FECD, TFR1 was quantified, which has been identified as an indicator of ferroptosis (Stockwell et al., 2017; Feng et al., 2020). […]

[2] = Optisol-GS at 4° C. over 4 days
Protocol: Samples of Optisol-GS are collected daily. Concentrations (μg drug/total protein) of ubiquinol and its oxidized form ubiquinone are measured using HPLC. Coenzyme Q9 (CoQ9) is the internal standard.

[3] = cited from earlier work
B4G12 CECs = test: RSL3/erastin-induced ferroptosis / cell death assay, cell viability by MTS, B4G12 CECs; assay type: cell-based, human
Protocol: as §1
FIGS. 8A-8B. Nanoparticle targeting and efficacy. […] FITC-anti-αvβ3 labeled cells were detected and counted by flow cytometry and compared to a FITC-IgG control as well as unlabeled cells. […] After incubating another 24 hours (68 hours total), cell viability in each culture was quantified using MTS assays. […]
as §2

Col8a2^L450W mice = conditions: 7 mg/ml in water vs water alone; cited from earlier work
[4] = 10 μM free ubiquinol for last 5 days of 12 days (average) storage, vs same-donor controls, N=13

In the case of `COc1c(O)c(C)c(C/C=C(\C)CC/C=C(\C)CC/C=C(\C)CC/C=C(\C)CC/C=C(\C)CC/C=C(\C)CC/C=C(\C)CC/C=C(\C)CC/C=C(\C)CCC=C(C)C)c(O)c1OC` [free ubiquinol, ubiquinol], the “increase in maximal respiration” value [1, 4] is reported as 93%, the “increase in spare respiratory capacity” value [1, 4] is reported as 174% and the “mitochondrial respiration / mitochondrial function” value ([1]; free ubiquinol in corneal storage media vs controls) is reported as “enhance mitochondrial function; also recorded: increased mitochondrial respiration compared to controls; also recorded: significantly increased mitochondrial respiration and spare respiratory capacity versus controls”. The “prevention of ferroptosis (cell viability, MTS)” value (cultured FECD CECs; antioxidant at 20 h, 1 μM RSL3 after 24 h, read after another 24 h) was “little efficacy”, the ubiquinol remaining [2] was 69.3% and the “solubility in water / aqueous media” value [3] was “practically insoluble in water; also recorded: poorly soluble in aqueous media”.
For `COC(=O)c1ccc([C@@H]2c3[nH]c4ccccc4c3C[C@@H](C(=O)OC)N2C(=O)CCl)cc1` [RSL3], the “sensitivity of cells to induced ferroptosis” value (cultured FECD CECs; cultured FECD CECs) was “sensitive” and the “sensitivity of cells to induced ferroptosis” value (B4G12 CECs) was “sensitive”.
In the case of `CC(=O)N[C@@H](CS)C(=O)O` [NAC, N-Acetyl-L-cysteine], the “CEC death associated with ER stress and oxidative stress” value (Col8a2^L450W mice) is listed as “prevented CEC death” and the “clinical markers of CEC health” value (Col8a2^L450W mice) is listed as “increase clinical markers of CEC health”.
